Source: patent US6979686B1, “Substituted pyrazoles as p38 kinase inhibitors” (Pharmacia Corporation, priority 2001, dated 2005)
Where a name gives a salt, the structure may show the parent alone. Read-outs that look alike come from different tables or passages of the source. Each block holds one molecule with its values, some of them ahead of it.

What was measured:
[1] = target: T1, human GST-p38 kinase alpha (Homo sapiens, UniProt Q16539); assay: p38 kinase in vitro assay, second format, phosphorylation of EGFRP with 33P-ATP; assay type: biochemical
T1 construct: made in house; host or cells: E. coli DH10B
Description: The ability of compounds to inhibit human p38 kinase alpha was evaluated using two in vitro assay methods. In the first method, activated human p38 kinase alpha phosphorylates a biotinylated substrate, PHAS-I (phosphorylated heat and acid stable protein-insulin inducible), in the presence of gamma ^32P-ATP (^32P-ATP). PHAS-I was biotinylated prior to the assay and provides a means of capturing the substrate which is phosphorylated during the assay. p38 Kinase was activated by MKK6. Compounds were tested in 10 fold serial dilutions over the range of 100 μM to 0.001 μM using 1% DMSO. Each concentration of inhibitor was tested in triplicate.
A second assay format was also employed that is based on p38 kinase alpha induced phosphorylation of EGFRP (epidermal growth factor receptor peptide, a 21 mer) in the presence of ^33P-ATP. Compounds were tested in 10 fold serial dilutions over the range of 100 μM to 0.001 μM in 10% DMSO. Each concentration of inhibitor was tested in triplicate. Compounds were evaluated in 50 μl reaction volumes in the presence of 25 mM Hepes pH 7.5, 10 mM magnesium acetate, 4% glycerol, 0.4% bovine serum albumin, 0.4 mM DTT, 50 μM unlabeled ATP, 25 μg EGFRP (200 μM), and 0.05 μCi gamma ^33P-ATP. Reactions were initiated by addition of 0.09 μg of activated, purified human GST-p38 kinase alpha. Activation was carried out using GST-MKK6 (5:1,p38:MKK6) for one hour at 30° C. in the presence of 50 μM ATP. Following incubation for 60 minutes at room temperature, the reaction was stopped by addition of 150 μl of AG 1X8 resin in 900 mM sodium formate buffer, pH 3.0 (1 volume resin to 2 volumes buffer). The mixture was mixed three times with pipetting and the resin was allowed to settle. A total of 50 μl of clarified solution head volume was transferred from the reaction wells to Microlite-2 plates. 150 μl of Microscint 40 was then added to each well of the Microlite plate, and the plate was sealed, mixed, and counted.

[2] = test system: collagen-induced arthritis, DBA/1 male mice; assay: Collagen-induced arthritis in mice; assay type: in vivo, mouse; settings: oral gavage b.i.d., day 20 to day 56
Description: Induction and Assessment of Collagen-induced Arthritis in Mice:
Arthritis was induced in mice according to the procedure set forth in J. M. Stuart, Collagen Autoimmune Arthritis, Annual Rev. Immunol. 2:199 (1984), which is incorporated herein by reference. Specifically, arthritis was induced in 8-12 week old DBA/1 male mice by injection of 50 μg of chick type II collagen (CII) (provided by Dr. Marie Griffiths, Univ. of Utah, Salt Lake City, Utah) in complete Freund's adjuvant (Sigma) on day 0 at the base of the tail. Injection volume was 100 μl. Animals were boosted on day 21 with 50 μg of CII in incomplete Freund's adjuvant (100 μl volume). Animals were evaluated several times each week for signs of arthritis. Any animal with paw redness or swelling was counted as arthritic. Scoring of arthritic paws was conducted in accordance with the procedure set forth in Wooley et al., Genetic Control of Type II Collagen Induced Arthritis in Mice: Factors Influencing Disease Suspectibility and Evidence for Multiple MHC Associated Gene Control., Trans. Proc., 15:180 (1983). Scoring of severity was carried out using a score of 1-3 for each paw (maximal score of 12/mouse). Animals displaying any redness or swelling of digits or the paw were scored as 1. Gross swelling of the whole paw or deformity was scored as 2. Ankylosis of joints was scored as 3. Animals were evaluated for 8 weeks. 8-10 animals per group were used.
Preparation and Administration of Compounds:
The compounds tested on mice having collagen-induced arthritis were prepared as a suspension in 0.5% methylcelluose (Sigma, St. Louis, Mo.), 0.025% Tween 20 (Sigma). The compound suspensions were administered by oral gavage in a volume of 0.1 ml b.i.d. Administration began on day 20 post collagen injection and continued daily until final evaluation on day 56. Scoring of arthritic paws was conducted as set forth above.

[3] = test system: TNF alpha, BALB/c mice injected with LPS; assay: Mouse model of LPS-induced TNF alpha production; assay type: in vivo; settings: Table 6; mouse LPS, head '8 h', dose 30, oral gavage
Outline: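 Female BALB/c mice aged 10–12 weeks received 100 ng LPS i.v. and were bled 1 h later, with serum TNF measured by ELISA. Compound was given by oral gavage in mg/kg at the stated hours before LPS. Values are % inhibition against vehicle-treated LPS mice.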

[4] = Table 10, 10% DMSO, @ 1.0 hour, read-out: p38α Kinase Assay IC50

T1 sequence (Q16539 whole entry): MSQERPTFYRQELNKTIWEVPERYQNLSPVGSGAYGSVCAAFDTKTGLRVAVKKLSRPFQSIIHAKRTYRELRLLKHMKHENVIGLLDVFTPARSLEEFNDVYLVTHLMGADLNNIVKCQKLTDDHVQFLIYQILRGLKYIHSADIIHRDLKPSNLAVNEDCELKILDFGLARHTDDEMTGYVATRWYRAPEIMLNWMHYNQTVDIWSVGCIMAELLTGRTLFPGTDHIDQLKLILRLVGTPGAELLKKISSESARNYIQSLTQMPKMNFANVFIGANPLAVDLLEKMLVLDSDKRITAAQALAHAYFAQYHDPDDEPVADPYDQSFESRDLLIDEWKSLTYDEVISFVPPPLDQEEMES

Structure (SMILES): Fc1ccc(-c2[nH]nc(N3CCNCC3)c2-c2ccncc2)cc1 [Example A-172, 1-[5-(4-fluorophenyl)-4-(4-pyridinyl)-1H-pyrazol-3-yl]piperazine trihydrochloride]
% Inhibition of Arthritis ([2]; 100 mpk): 49.3 @ 100 mpk %

Structure (SMILES): Fc1ccc(-c2[nH]nc(C3CC3)c2-c2ccncc2)cc1 [Example A-189, 4-[3-cyclopropyl-5-(4-fluorophenyl)-1H-pyrazol-4-yl]pyridine]
% Inhibition of Arthritis ([2]; 30 mpk): 51.6 @ 30 mpk %

Structure (SMILES): OCCn1cc(-c2ccncc2)c(-c2ccc(F)cc2)n1 [Example A-210, 3-(4-fluorophenyl)-4-(4-pyridinyl)-1H-pyrazole-1-ethanol]
% Inhibition of Arthritis ([2]; 15 mpk): 58.5 @ 15 mpk %
mLPS 8 h percent inhibition [3]: 85%

Other lines, results leading:

IC50 [1, 4]: 21200 nM
Structure (SMILES): O=C(C(=C1SCS1)c1ccncc1)c1ccc(I)cc1 [Example A-401]

IC50 [1, 4]: 510 nM
Structure (SMILES): COc1ccc(-c2n[nH]c(N3CCN(C)CC3)c2-c2ccncc2)cc1 [Example A-415, 1-(4-(4-methoxyphenyl)-4-(4-pyridinyl)-1H-pyrazol-3-yl]-4-methylpiperazine]

IC50 ([1]; Table 6, EGFRP assay procedure, read-out: p38^2 (p38α in vitro assay, EGFRP assay procedure) IC50): < 10 nM
Structure (SMILES): Fc1ccc(-c2[nH]ncc2-c2ccnc(NCCn3ccnc3)c2)cc1 [Example A-268, 4-[3-(4-fluorophenyl)-1H-pyrazol-4-yl]-N-[2-(1H-imidazol-1-yl)ethyl]-2-pyridinamine]

IC50 ([1]; Table 9, 10% DMSO, read-out: p38α Kinase Assay IC50): 16 nM
Structure (SMILES): O[C@H]1CC[C@H](Nc2cc(-c3c[nH]nc3-c3ccc(F)cc3)ccn2)CC1 [Example A-386, trans-4-[[4-[3-(4-fluorophenyl)-1H-pyrazol-4-yl]-2-pyridinyl]amino]cyclohexanol]
